Source: US8222300B2, “Methods of treating parkinson's disease using halogenated volatile compounds” (Mouse Specifics, Inc., priority 2007, dated 2012)

Tested on: adult female CD-1 mice
Assay type: in vivo
Procedure: Isoflurane is a halogenated inhalation anesthetic and is routinely used in laboratory animals for its anesthetic properties. In this experiment, posture and gait in mice after brief isoflurane anesthesia was investigated.
Ventral plane videography was used to image 4 adult female CD-1 mice walking 25 cm/s on a transparent treadmill belt just prior to 5 minutes of isoflurane (2.5% isoflurane final concentration in 100% oxygen) anesthesia. Gait analysis was again performed at 25 cm/s 1, 15, 30 and 60 minutes after the animals regained their righting reflex. Mice were placed in a chamber and delivered the isoflurane via a system which vaporized the isoflurane and mixed it with the oxygen using an anesthesia system (EZ Anesthesia™, Euthanex).
When the mice first emerged from the anesthesia (animals were moved from an anesthesia box to room air, including oxygen and CO2), they were groggy for about 2-40 seconds. Following the brief groggy period, a supranormal function became apparent as their gait (including stride length, stance width, and swing duration) was improved relative to prior to the administration of the isoflurane.

[1] = following cessation of anesthesia

Duration of groggy period on emergence from anesthesia (mouse, in vivo): 2 to 40 s
Compound: FC(F)OC(Cl)C(F)(F)F (stereo not shown) [isoflurane, 2-chloro-2-(difluoromethoxy)-1,1,1-trifluoro-ethane]
Increase of swing duration compared to baseline (1 minute after recovery): ~50% | Stride length (1 minute after recovery from 5 minutes of 2.5% isoflurane in 100% oxygen, treadmill 25 cm/s, baseline 6.3±0.1 cm, P<0.05): 7.6±0.2 cm | Stance width variability (1 minute after recovery from isoflurane, versus baseline): lower | Swing duration (1 minute after recovery, baseline 77±3 ms, P<0.05): 103 ± 3 ms | Propulsion duration of the hind limbs (1 minute after recovery, baseline 128±5 ms, P<0.05): 167 ± 6 ms | Stepping frequency (1 minute after recovery, treadmill 25 cm/s, baseline 4.1±0.1 Hz, P<0.05): 3.3±0.1 Hz | Persistence of some supranormal gait characteristics [1]: ~30 min | Time for all gait metrics to return to baseline [1]: ≤ 60 min | Increase in stride length (some mice emerging from isoflurane anesthesia): about 25%
